Test results as given in US11427533B2, “Crystalline polymorphs of bardoxolone methyl” (PLIVA HRVATSKA d.o.o., priority 2017, dated 2022).
≈ marks a conversion by molar mass, not a printed value. Entries after “also recorded” stand apart in the source; their conditions may differ. Read-outs that look alike come from different tables or passages of the source.

Tests used:
[1] = Solubility in aqueous buffers, shaker at 37° C., filtrate by UHPLC; format: physicochemical; conditions: for Concentration mg/mL (UHPLC) / solubility thermodynamic at 2 h: 150 mg/8 mL suspension; for solubility thermodynamic at 2 h: 37 °C, thermodynamic from solid, read-out: Concentration mg/mL (UHPLC); for Solubility compared with crystalline form A / Solubility compared with non-crystalline (amorphous) form B: in words
Method: UHPLC analyses was performed on Agilent 1290 Infinity LC system with a DAD. UV spectra were recorded at 190-400 nm, with the working wavelength of 240 nm. The column used was Waters Acquity UPLC BEH Phenyl (100 mm×2.1 mm i.d., particle size 1.7 μm), at the column temperature of 50° C. Mobile phases employed for gradient elution were water with 0.1% of formic acid as mobile phase A and acetonitrile with 0.1% of formic acid as mobile phase B. Gradient conditions for the analysis were: isocratic flow from 0.0 to 0.5 min with 40% of mobile phase B; linear gradient from 40% of mobile phase B up to 90% of mobile phase B from 0.5 to 4.0 min; isocratic flow at 90% of mobile phase B from 4.0 to 4.5 min; linear gradient down to 40% of mobile phase B from 4.5 to 5.0 min and finally, reconditioning the column for 0.5 min on starting conditions. 1 μL to 10 μL of sample solution was injected at a flow rate of 0.7 mL min^−1.
Solubility of Bardoxolone methyl form D and the patent forms in U.S. Pat. Nos. 8,309,601 and 8,088,824 were determined in aqueous buffers and water. Suspension of tested substance (150 mg/8 mL) was stirred on a shaker (200 rpm) in a closed vial at 37° C. Suspension was filtered and concentration of Bardoxolone methyl in filtrate was determined by UHPLC. Undissolved residue was analyzed by XRPD.

[2] = as indicated in WO2010093944; cited from earlier work
[3] = Physical stability of Form D (pressure, heating, sauna), form checked by XRPD; format: physicochemical; conditions: for XRD form after transformation by sauna (closed flask, RT): 1 day; for XRD form after pressure: 1 min
Method: Crystalline Form D of Bardoxolone is also stable to conversion after exposure to an atmosphere containing organic solvents, for example ethylene glycol, in a closed vessel at room temperature for 24 hours). Such stability may enable the use of form D in variety of preparation methods including preparation of solid dispersion by spray drying, wet granulation etc.
Sample after being powdered in a mortar and pestle is applied directly on a silicon plate holder. The X-ray powder diffraction pattern was measured with Philips X'Pert PRO X-ray powder diffractometer, equipped with Cu irradiation source=1.54184 Å (Ångström), X'Celerator (2.022° 2θ) detector.
The physical stability of Form D was investigated at different conditions: in heating, under pressure and by sauna.

[4] = buffer pH 1.2 (0.063M HCl + 2.0 g/L NaCl), 2 h at 37° C.
[5] = buffer pH 4.5 (0.05M acetate buffer PhEur), 2 h at 37° C.

| Compound | Concentration mg/mL (UHPLC) [1, 4] | Concentration mg/mL (UHPLC) ([1]; buffer pH 1.2 (0.063M HCl + 2.0 g/L NaCl), 4 h at 37° C.) | Concentration mg/mL (UHPLC) [1, 5] | Oral bioavailability (in words) [2] | solubility thermodynamic at 2 h ([1]; HCl/NaCl buffer, pH 1.2, simulated gastric fluid, buffer pH 1.2 (0.063M HCl + 2.0 g/L NaCl), 2 h at 37° C.) [µg/mL] | solubility thermodynamic at 2 h ([1]; acetate buffer, pH 4.5, aqueous buffer, buffer pH 4.5 (0.05M acetate buffer PhEur), 2 h at 37° C.) [µg/mL] | XRD form after heating (open vessel) ([3]; 100° C., 5 min) | XRD form after transformation by sauna (closed flask, RT) ([3]; ethylene glycol) | Polymorphic stability, conversion to other forms (in words) ([3]; pressure 1 t or 2 t 1 min, 100° C. 5 min, water sauna RT 90%-100% RH 24 hours, ethylene glycol atmosphere RT 24 hours) | XRD form after pressure ([3]; pressure 1 t) | XRD form after pressure ([3]; pressure 2 t) | XRD form after transformation by sauna (closed flask, RT) ([3]; water) | Solubility compared with crystalline form A [1] | Solubility compared with non-crystalline (amorphous) form B [1] | Solubility compared with crystalline form A ([1]; listed as form D) | Solubility compared with non-crystalline (amorphous) form B ([1]; listed as form D) |
| --- | --- | --- | --- | --- | --- | --- | --- | --- | --- | --- | --- | --- | --- | --- | --- | --- |
| COC(=O)[C@]12CCC(C)(C)C[C@H]1[C@H]1C(=O)C=C3[C@]4(C)C=C(C#N)C(=O)C(C)(C)[C@@H]4CC[C@@]3(C)[C@]1(C)CC2 [Form A, Methyl-2-cyano-3,12-dioxooleana-1,9(11)-dien-28-oic acid, reference compound] | LTQL | LTQL | LTQL | relatively low oral bioavailability | – | – | – | – | – | – | – | – | – | – | – | – |
| COC(=O)[C@]12CCC(C)(C)C[C@H]1[C@H]1C(=O)C=C3[C@]4(C)C=C(C#N)C(=O)C(C)(C)[C@@H]4CC[C@@]3(C)[C@]1(C)CC2 [Form B, Methyl-2-cyano-3,12-dioxooleana-1,9(11)-dien-28-oic acid, reference compound] | – | – | – | markedly superior oral bioavailability compared to Form A | 0.08 | 0.04 (≈ 0.0791 µM) | – | – | – | – | – | – | – | – | – | – |
| COC(=O)[C@]12CCC(C)(C)C[C@H]1[C@H]1C(=O)C=C3[C@]4(C)C=C(C#N)C(=O)C(C)(C)[C@@H]4CC[C@@]3(C)[C@]1(C)CC2 [Form D, Methyl-2-cyano-3,12-dioxooleana-1,9(11)-dien-28-oic acid] | 0.00004 mg/mL | – | 0.00002 mg/mL | – | – | – | Form D | Form D | maintained; also recorded: resistant to conversion to any other forms | Form D | Form D | Form D | improved solubility | comparable solubility | higher | comparable |
